These results are taken from patent US7396812B2, “Method for modulating Nod1 activity, use of a MTP related molecule for modulating Nod1 activity, and therapeutic applications thereof” (Institut Pasteur, priority 2003, dated 2008).

Entries after “also recorded” stand apart in the source; their conditions may differ.

The target of assay [1] is T1, Nod1 (Homo sapiens, UniProt Q9Y239).
T1 sequence (Q9Y239 1-953): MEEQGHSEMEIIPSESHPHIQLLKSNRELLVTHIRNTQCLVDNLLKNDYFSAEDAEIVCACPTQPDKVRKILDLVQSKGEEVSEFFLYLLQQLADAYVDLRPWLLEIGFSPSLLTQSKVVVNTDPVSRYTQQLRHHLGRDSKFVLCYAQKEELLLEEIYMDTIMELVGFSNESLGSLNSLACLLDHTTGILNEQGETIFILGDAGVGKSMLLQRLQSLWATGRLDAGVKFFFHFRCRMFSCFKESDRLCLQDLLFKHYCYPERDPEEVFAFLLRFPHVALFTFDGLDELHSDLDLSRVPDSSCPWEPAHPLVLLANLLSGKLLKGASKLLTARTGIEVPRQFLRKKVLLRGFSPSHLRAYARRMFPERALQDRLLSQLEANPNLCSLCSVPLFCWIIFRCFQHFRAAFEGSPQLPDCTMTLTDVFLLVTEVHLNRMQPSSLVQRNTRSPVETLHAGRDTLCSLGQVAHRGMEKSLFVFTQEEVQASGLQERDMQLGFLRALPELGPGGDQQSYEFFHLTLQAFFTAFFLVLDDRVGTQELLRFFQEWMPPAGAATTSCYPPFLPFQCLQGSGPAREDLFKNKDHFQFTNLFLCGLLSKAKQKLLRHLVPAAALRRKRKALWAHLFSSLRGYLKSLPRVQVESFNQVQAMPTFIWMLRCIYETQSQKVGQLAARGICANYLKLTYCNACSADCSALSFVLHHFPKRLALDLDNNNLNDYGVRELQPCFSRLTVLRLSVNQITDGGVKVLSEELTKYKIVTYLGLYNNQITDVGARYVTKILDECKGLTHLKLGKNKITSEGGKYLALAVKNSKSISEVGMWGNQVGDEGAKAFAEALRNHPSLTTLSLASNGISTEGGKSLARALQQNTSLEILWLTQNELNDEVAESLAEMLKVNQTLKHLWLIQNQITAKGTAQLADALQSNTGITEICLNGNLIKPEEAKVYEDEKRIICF
The experiment in a line: Nod1-dependent NF-κB-luciferase activation in Nod1-overexpressing HEK293 cells. Type of assay: cell-based. Also noted: expressed in transfected cells; host or cells: HEK293. To be noted: for activation of Nod1 by HPLC muropeptide fractions: N. meningitidis PGN muropeptide fractions, 1% of the volume of each fraction; for detection by Nod1 (Nod1-dependent activation of NF-κB): equivalent amounts (10 ng) of muropeptide; for stimulation of the Nod1 pathway (NF-κB activation): LPS, lipid A, lipoprotein preparations, 10 μg (10 μg/ml in b180). Here is the method:
(§1) Studies examining the activation of NF-κB by LPS, lipid A, lipoproteins or the purified PGNs in cells over-expressing Nod1 were carried out as described by Inohara et al. (N. Inohara et al., 2001). Briefly, HEK293 cells were transfected overnight with 10 ng of Nod1. At the same time, the LPS, lipoproteins or peptidoglycan preparations were added and the NF-κB-dependent luciferase activation was then measured following 24 h of co-incubation.
(§2) NF-κB-dependent luciferase assays were performed in duplicate and data represent at least 3 independent experiments.

The subject of assay [2] is NF-κB p65 in isolated intestinal epithelial cells. Put plainly: NF-κB p65 nuclear translocation in isolated intestinal epithelial cells from wild-type or Nod1-deficient mice. Type of assay: cell-based. As to conditions: supernatants microinjected, TNFα 10 ng/ml. Here is the method:
At least 50 microinjected cells were examined per coverslip and experiments were performed at least 2 times independently with similar results.
Microinjection of Gram-negative but not Gram-positive bacterial supernatants activates NF-κB in isolated intestinal epithelial cells from wild-type mice, as observed by nuclear translocation of the p65 subunit of NF-κB (as described in FIG. 3B).

Assay [3] has as its target T2, Nod2 (Homo sapiens, UniProt Q9HC29).
T2 construct: expressed in transfected cells
As to conditions: previous findings, Girardin et al. 2003; Inohara et al. 2003; cited from earlier work.

Assay [4] deals with T1, Nod1. Put plainly: Nod1-dependent IL-8 production in HeLa epithelial cells (ELISA). Also noted: expressed in transfected cells. The format is cell-based. As to conditions: HeLa cells transfected with 10 ng Nod1 plus muropeptide, 18 h. As to the method:
To measure Nod1-dependent IL-8 produced in epithelial cells by muropeptides, 5×10^5 HeLa cells were seeded into each well of a twelve well plate and transfected the following day with 10 ng Nod1 plus the individual muropeptides (as described above) or treated with IL-1 as a positive control. Eighteen hours later, supernatants were collected and assayed for IL-8 as previously described (D. J. Philpott et al., 2000) using an ELISA kit (R and D Systems).
(In general: In an ELISA, binding on a coated surface is turned into a signal by an enzyme label.)

Assay [5] concerns the target T2, Nod2. Put plainly: Nod2-dependent activation of NF-κB. Type of assay: cell-based. To be noted: equivalent amounts (10 ng) of muropeptide. Here is the method:
as §1, §2
In FIG. 2A, PGN muropeptides from N. meningitidis were separated by reverse-phase HPLC and subsequently analysed by mass spectroscopy (see supporting on-line text). N.D.(a), not determined for this particular HPLC fractionation, but found to be O-acetylated dimeric GM-tetrapeptide in subsequent HPLC fractionation and mass spectroscopy analyses. […] N.D.(b), fraction unknown. […] FIG. 2C is a schematic representation of N. meningitidis PGN detailing the Nod1-active motif from fraction 3 (GM-tripeptide) as determined by mass spectroscopy. In FIG. 2D, equivalent amounts (10 ng) of GM-dipeptide (GM-di; synthetic source), GM-tripeptide (GMtri), or GM-tetrapeptide (GM-tetra) were tested for stimulation of Nod1-, Nod2- or TLR2-dependent activation of NF-κB. […]

T2 sequence (Q9HC29 whole entry): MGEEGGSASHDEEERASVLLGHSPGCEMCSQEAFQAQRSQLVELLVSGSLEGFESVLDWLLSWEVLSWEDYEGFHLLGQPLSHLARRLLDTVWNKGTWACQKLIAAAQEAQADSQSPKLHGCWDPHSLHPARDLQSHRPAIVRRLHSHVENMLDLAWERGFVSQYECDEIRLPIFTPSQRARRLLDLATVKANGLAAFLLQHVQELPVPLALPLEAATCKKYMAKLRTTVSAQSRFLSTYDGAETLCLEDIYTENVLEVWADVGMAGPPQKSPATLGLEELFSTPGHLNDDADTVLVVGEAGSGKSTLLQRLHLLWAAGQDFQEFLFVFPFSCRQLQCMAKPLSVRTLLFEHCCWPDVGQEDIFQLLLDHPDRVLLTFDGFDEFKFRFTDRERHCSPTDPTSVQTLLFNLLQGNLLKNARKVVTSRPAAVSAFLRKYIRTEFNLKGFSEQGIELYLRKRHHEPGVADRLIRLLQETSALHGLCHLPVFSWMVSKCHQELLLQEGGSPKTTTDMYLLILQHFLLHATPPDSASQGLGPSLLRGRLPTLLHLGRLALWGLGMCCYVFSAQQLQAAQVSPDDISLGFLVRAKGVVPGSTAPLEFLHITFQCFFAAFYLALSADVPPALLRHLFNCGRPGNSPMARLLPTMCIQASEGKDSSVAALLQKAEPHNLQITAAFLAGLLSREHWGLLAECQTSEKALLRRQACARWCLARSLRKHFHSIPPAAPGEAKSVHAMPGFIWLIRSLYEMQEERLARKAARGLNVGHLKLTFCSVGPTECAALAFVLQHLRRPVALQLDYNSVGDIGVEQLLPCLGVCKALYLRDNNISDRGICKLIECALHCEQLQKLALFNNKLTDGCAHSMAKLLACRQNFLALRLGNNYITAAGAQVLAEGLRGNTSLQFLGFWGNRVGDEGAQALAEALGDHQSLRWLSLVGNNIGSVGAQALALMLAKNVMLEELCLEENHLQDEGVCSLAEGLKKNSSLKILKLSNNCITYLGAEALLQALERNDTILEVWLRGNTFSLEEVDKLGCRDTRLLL

On to `C[C@H](N)C(=O)N[C@H](CCC(=O)NC(CCCC(N)C(=O)O)C(=O)O)C(=O)O` (stereo partly drawn) [tripeptide L-Ala-D-Glu-mesoDAP, L-Ala-D-Glu-mesoDAP], for which the “detection by Nod1 of peptidoglycan structures (FIG. 8)” value (“detection by Nod1 … (FIG. 8)” for short) on Nod1 [1] is recorded as “able to sense”. Take TNFα: the “NF-κB nuclear translocation in Nod1-deficient cells” value in assay [2] is reported as “can efficiently stimulate NF-κB nuclear translocation”. In the case of “GlcNAc-MurNAc-L-Ala-D-Glu-mesoDAP(GlcNAc-MurNAc-L-Ala-D-Glu-mesoDAP-D-Ala)-D-Ala [dimeric GM-tetrapeptide]”, the “activation of Nod1 by HPLC muropeptide fractions” value on Nod1 [1] is reported as “does not activate Nod1”.

For `CC(=O)N[C@@H]1[C@@H](O[C@H](C)C(=O)N[C@@H](C)C(=O)N[C@H](CCC(=O)O)C(N)=O)[C@H](O)[C@@H](CO)O[C@H]1O` [M-dipeptide], the “recognition by Nod2” value on Nod2 [3] is reported as “recognizes”. Take “GlcNAc-MurNAc-L-Ala-D-Glu-mesoDAP-DAla [GM-tetrapeptide]”: the “detection by Nod1 (Nod1-dependent activation of NF-κB)” value on Nod1 [1] is given as “not sensed by Nod1”. `CC(=O)NC1C(O)OC(CO)C(O)C1OC(C)C(=O)NC(C)C(=O)NC(CCC(=O)NC(CCCC(N)C(=O)O)C(=O)O)C(=O)O` (stereo not drawn) [MurTriDAP]: at Nod1 [1], the “detection by Nod1 … (FIG. 8)” value is listed as “detects”. “Pam3Cys-Ser-Lys4-OH [synthetic lipopeptide]”: the “stimulation of the Nod1 pathway (NF-κB activation)” value (shortened to “stimulation of the Nod1 pathway”) on Nod1 [1] was “not possible to stimulate the Nod1 pathway”; at Nod1 [1] (listed as lipopeptide), “fail to activate the Nod1 pathway”.

`C[C@H](N)C(=O)N[C@H](CCC(=O)NC(CCCC(N)C(=O)O)C(=O)O)C(=O)O` (stereo partly drawn) [TriDAP]: the “detection by Nod1 … (FIG. 8)” value at Nod1 [1] was “detects”. Consider lipid A, for which the “stimulation of the Nod1 pathway” value at Nod1 [1] is on record as “could not stimulate the Nod1 pathway”. As to `CC(=O)N[C@H]1[C@@H](OP(=O)(O)OP(=O)(O)OC[C@H]2O[C@@H](n3ccc(=O)[nH]c3=O)[C@H](O)[C@@H]2O)O[C@H](CO)[C@@H](O)[C@@H]1O[C@H](C)C(=O)N[C@@H](C)C(=O)N[C@H](CCC(=O)N[C@@H](CCC[C@@H](N)C(=O)O)C(=O)O)C(=O)O` [UDP-MurTriDAP], at Nod1 [1], the “detection by Nod1 … (FIG. 8)” value is given as “detects”. “GlcNAc-anhydro-MurNAc-L-Ala-D-GlumesoDAP [anhydrous GM-tripeptide]”: the “activation of Nod1 by HPLC muropeptide fractions” value on Nod1 [1] is reported as “active molecule in fraction 17”.

Regarding “GlcNAc-MurNAc-L-Ala-D-Glu-mesoDAP [GM-tripeptide]”, at Nod1 [4], the “production of IL-8” value is “production of the pro-inflammatory chemokine, IL-8; also recorded: leads to the production”. Moreover, at Nod1 [1], the “detection by Nod1 … (FIG. 8)” value is “detects” and the “detection by Nod1 (Nod1-dependent activation of NF-κB)” value was “specifically detects”. In addition, at Nod1 [1] (listed as fraction 3), the “activation of Nod1 by HPLC muropeptide fractions” value is reported as “activates Nod1; also recorded: able to activate Nod1”. For `CC(=O)N[C@H]1[C@H](O[C@H]2[C@H](O[C@H](C)C(=O)N[C@@H](C)C(=O)N[C@H](CCC(=O)O)C(N)=O)[C@@H](NC(C)=O)C(O)O[C@@H]2CO)O[C@H](CO)[C@@H](O)[C@@H]1O` (stereo partly drawn) [GM-dipeptide], the “detection by Nod2 (Nod2-dependent activation of NF-κB)” value on Nod2 [5] is given as “detects”. As to “Lpp: the most abundant lipoprotein in E. coli (lipidated)”, the “stimulation of the Nod1 pathway” value in the assay with Nod1 [1] is “fail to activate the Nod1 pathway; also recorded: not possible to stimulate the Nod1 pathway”.
